25 molecules from patent US10428044B2, “3-amino-1,5,6,7-tetrahydro-4H-indol-4-ones” (Bayer Pharma Aktiengesellschaft, priority 2014, dated 2019) can be followed below.

The term IC50 denotes the concentration needed to halve the response being measured.

Molecules are shown by their SMILES.

Sequence of (recombinant) catalytic domain of human Bub1 (amino acids 704-1085) (O43683 704-1085): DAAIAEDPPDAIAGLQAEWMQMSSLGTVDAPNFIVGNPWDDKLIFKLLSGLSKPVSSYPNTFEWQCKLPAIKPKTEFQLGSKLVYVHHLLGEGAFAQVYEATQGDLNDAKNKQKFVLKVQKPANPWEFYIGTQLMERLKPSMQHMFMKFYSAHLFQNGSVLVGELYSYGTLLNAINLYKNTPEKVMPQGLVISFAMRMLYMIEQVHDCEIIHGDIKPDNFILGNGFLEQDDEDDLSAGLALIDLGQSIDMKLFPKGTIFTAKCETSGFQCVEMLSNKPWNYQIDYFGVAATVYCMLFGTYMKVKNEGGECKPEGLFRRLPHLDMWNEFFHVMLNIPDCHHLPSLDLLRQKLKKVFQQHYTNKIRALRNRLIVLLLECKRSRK

The test concerns the target (recombinant) catalytic domain of human Bub1 (amino acids 704-1085) (Homo sapiens (Human), UniProt O43683). The experiment in a line: Bub1 kinase assay (TR-FRET). It counts as biochemical. Conditions: ATP 10 μM final, peptide substrate 1 μM final, 60 min at 22° C., read-out: Biological Assay: Bub1 kinase assay median IC50. Summed up:
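Readout was TR-FRET between a Eu-labeled antibody complex recognizing phosphoserine and streptavidin-XL665 on the biotinylated peptide, after EDTA stop and 1 h at 22° C. The kinase reaction ran for 60 min at 22° C. Values are means or medians of repeat tests, from 4-parameter fits normalized to enzyme-free and inhibitor-free controls.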
Consider `CCc1ccccc1Nc1c(-c2ccncc2)[nH]c2c1C(=O)CC(C)(C)C2` [Example 84, 3-[(2-ethylphenyl)amino]-6,6-dimethyl-2-(pyridin-4-yl)-1,5,6,7-tetrahydro-4H-indol-4-one], for which the IC50 came out at 127 nM.

As to `CC1(C)CC(=O)c2c([nH]c(-c3ccncc3)c2Nc2ccc([N+](=O)[O-])cc2)C1` [Example 90, 6,6-dimethyl-3-[(4-nitrophenyl)amino]-2-(pyridin-4-yl)-1,5,6,7-tetrahydro-4H-indol-4-one], the IC50 was 509 nM.

With `Cn1nccc1CC(=O)Nc1cc(-c2[nH]c3c(c2Nc2ccccc2)C(=O)CCC3)ccn1` [Example 292, 2-(1-methyl-1H-pyrazol-5-yl)-N-{4-[4-oxo-3-(phenylamino)-4,5,6,7-tetrahydro-1H-indol-2-yl]pyridin-2-yl}acetamide], the IC50 amounted to 340 nM.

For `O=C(COC[C@@H]1CCCCO1)Nc1cc(-c2[nH]c3c(c2Nc2ccccc2)C(=O)CCC3)ccn1` [Example 343, N-{4-[4-oxo-3-(phenylamino)-4,5,6,7-tetrahydro-1H-indol-2-yl]pyridin-2-yl}-2-[(2S)-tetrahydro-2H-pyran-2-ylmethoxy]acetamide], the IC50 is 8.45 nM.

For the molecule `O=C(O)CCn1c2c(c(Nc3ccccc3)c1-c1ccncc1)C(=O)CCC2` [Example 173, 3-[4-oxo-3-(phenylamino)-2-(pyridin-4-yl)-4,5,6,7-tetrahydro-1H-indol-1-yl]propanoic acid], the IC50 came to 474 nM.

As for `CC1(C)CC(=O)c2c([nH]c(-c3ccnc(NC(=O)[C@@H]4C[C@H]4F)c3)c2Nc2ccccc2)C1` (racemic) [Example 254, (S,R)—N-{4-[6,6-dimethyl-4-oxo-3-(phenylamino)-4,5,6,7-tetrahydro-1H-indol-2-yl]pyridin-2-yl}-2-fluorocyclopropanecarboxamide], the IC50 stood at 6.34 nM.

Take `CC1(C)CC(=O)c2c([nH]c(-c3ccnc(NCC4CC4)c3)c2Nc2ccccc2)C1` [Example 509, 2-{2-[(cyclopropylmethyl)amino]pyridin-4-yl}-6,6-dimethyl-3-(phenylamino)-1,5,6,7-tetrahydro-4H-indol-4-one]: the IC50 was determined as 221 nM.

Turning to `CC(C)(C)C(=O)Nc1cc(-c2[nH]c3c(c2Nc2ccccc2)C(=O)CCC3)ccn1` [Example 227, 2,2-dimethyl-N-{4-[4-oxo-3-(phenylamino)-4,5,6,7-tetrahydro-1H-indol-2-yl]pyridin-2-yl}propanamide], the IC50 was determined as 260 nM.

As for `Cc1cc(F)cc(Nc2c(-c3ccncc3)[nH]c3c2C(=O)CC(C)(C)C3)c1` [Example 14, 3-[(3-fluoro-5-methylphenyl)amino]-6,6-dimethyl-2-(pyridin-4-yl)-1,5,6,7-tetrahydro-4H-indol-4-one], the IC50 amounted to 10.8 nM.

With `CCc1cccc(Nc2c(-c3ccncc3)[nH]c3c2C(=O)CC(C)(C)C3)c1` [Example 15, 3-[(3-ethylphenyl)amino]-6,6-dimethyl-2-(pyridin-4-yl)-1,5,6,7-tetrahydro-4H-indol-4-one], the IC50 turned out to be 23.6 nM.

Turning to `Nc1cc(-c2[nH]c3c(c2Nc2ccc(F)c(F)c2)C(=O)CCC3)ccn1` [Example 212, 2-(2-aminopyridin-4-yl)-3-[(3,4-difluorophenyl)amino]-1,5,6,7-tetrahydro-4H-indol-4-one], the IC50 amounted to 220 nM.

For `CC1(C)CC(=O)c2c([nH]c(-c3ccncc3)c2Nc2ccccc2C(N)=O)C1` [Example 429, 2-{[6,6-dimethyl-4-oxo-2-(pyridin-4-yl)-4,5,6,7-tetrahydro-1H-indol-3-yl]amino}benzamide], the IC50 worked out at 70.9 nM.

For the molecule `CC1(C)CC(=O)c2c([nH]c(-c3ccnc(NCC(F)(F)F)c3)c2Nc2ccccc2)C1` [Example 361, 6,6-dimethyl-3-(phenylamino)-2-{2-[(2,2,2-trifluoroethyl)amino]pyridin-4-yl}-1,5,6,7-tetrahydro-4H-indol-4-one], the IC50 stood at 600 nM.

Take `CN(CCC(=O)Nc1cc(-c2[nH]c3c(c2Nc2ccccc2)C(=O)CCC3)ccn1)C(=O)OC(C)(C)C` [Example 299, tert-butyl methyl[3-oxo-3-({4-[4-oxo-3-(phenylamino)-4,5,6,7-tetrahydro-1H-indol-2-yl]pyridin-2-yl}amino)propyl]carbamate]: the IC50 is 74.3 nM.

As for `CC(C)c1ccc(Nc2c(-c3ccncc3)[nH]c3c2C(=O)CC(C)(C)C3)cc1` [Example 86, 6,6-dimethyl-3-{[4-(propan-2-yl)phenyl]amino}-2-(pyridin-4-yl)-1,5,6,7-tetrahydro-4H-indol-4-one], the IC50 turned out to be 5460 nM.

As to `CC1CC(=O)c2c(Nc3ccccc3)c(-c3ccncc3)n(C)c2C1` (stereo not shown) [Example 178, 1,6-dimethyl-3-(phenylamino)-2-(pyridin-4-yl)-1,5,6,7-tetrahydro-4H-indol-4-one], the IC50 turned out to be 99.6 nM.

With `CC1(C)CC(=O)c2c([nH]c(-c3ccncc3)c2Nc2ccc(S(N)(=O)=O)cc2)C1` [Example 432, 4-{[6,6-dimethyl-4-oxo-2-(pyridin-4-yl)-4,5,6,7-tetrahydro-1H-indol-3-yl]amino}benzenesulfonamide], the IC50 was found to be 2360 nM.

As for `COc1cnccc1-c1[nH]c2c(c1Nc1ccccc1)C(=O)CCC2` [Example 413, 2-(3-methoxypyridin-4-yl)-3-(phenylamino)-1,5,6,7-tetrahydro-4H-indol-4-one], the IC50 came out at 43.2 nM.

In the case of `CC1(C)CC(=O)c2c(Nc3ccccc3)c(-c3ccncc3)n(CC(F)F)c2C1` [Example 188, 1-(2,2-difluoroethyl)-6,6-dimethyl-3-(phenylamino)-2-(pyridin-4-yl)-1,5,6,7-tetrahydro-4H-indol-4-one], the IC50 amounted to 50.6 nM.

On to `CC1(C)CC(=O)c2c([nH]c(-c3ccncc3)c2Nc2ccccc2Cc2ccccc2)C1` [Example 416, 3-[(2-benzylphenyl)amino]-6,6-dimethyl-2-(pyridin-4-yl)-1,5,6,7-tetrahydro-4H-indol-4-one], for which the IC50 came to 689 nM.

As for `Cn1ccc(C(=O)Nc2cc(-c3[nH]c4c(c3Nc3ccccc3)C(=O)CCC4)ccn2)n1` [Example 454, 1-methyl-N-{4-[4-oxo-3-(phenylamino)-4,5,6,7-tetrahydro-1H-indol-2-yl]pyridin-2-yl}-1H-pyrazole-3-carboxamide], the IC50 turned out to be 7.33 nM.

Consider `CC1(C)CC(=O)c2c([nH]c(-c3ccncc3)c2Nc2ccccn2)C1` [Example 25, 6,6-dimethyl-2-(pyridin-4-yl)-3-(pyridin-2-ylamino)-1,5,6,7-tetrahydro-4H-indol-4-one], for which the IC50 was 26.3 nM.

Consider `C[C@H](C(=O)Nc1cc(-c2[nH]c3c(c2Nc2ccccc2)C(=O)CCC3)ccn1)N(C)C(=O)OC(C)(C)C` [Example 301, tert-butyl methyl[(2R)-1-oxo-1-({4-[4-oxo-3-(phenylamino)-4,5,6,7-tetrahydro-1H-indol-2-yl]pyridin-2-yl}amino)propan-2-yl]carbamate], for which the 50% inhibitory concentration (IC50) is 738 nM.

`CC1(C)CC(=O)c2c([nH]c(-c3ccncc3)c2Nc2cccc(OCc3ccccc3)c2)C1` [Example 80, 3-{[3-(benzyloxy)phenyl]amino}-6,6-dimethyl-2-(pyridin-4-yl)-1,5,6,7-tetrahydro-4H-indol-4-one]: the IC50 was determined as 188 nM.

For the molecule `CCn1c2c(c(Nc3ccccc3)c1-c1ccncc1)C(=O)CC(C)(C)C2` [Example 181, 1-ethyl-6,6-dimethyl-3-(phenylamino)-2-(pyridin-4-yl)-1,5,6,7-tetrahydro-4H-indol-4-one], the IC50 came out at 32.7 nM.
